From patent publication US11660279B2, “Therapeutic agents for treating restless leg syndrome” (INTRABIO LTD, priority 2018, dated 2023)

Assays:
[1] = tested on: patients with restless leg syndrome (RLS); test: International Restless Legs Syndrome Rating Scale score (IRLS) in patient case studies; type: in vivo, human; set-up: key: IRLS score, 0 (no symptoms) to 40; >30 very severe
Source text: RLS severity varies and can be measured using one or more of several scales. A widely reported rating scale known as the International Restless Legs Syndrome Study Group Rating Scale (“IRLS”) was developed by the International Restless Legs Syndrome Study Group (“IRLSSG”) (Walters et al., Validation of the 15 International Restless Legs Syndrome Study Group rating scale for restless legs syndrome. Sleep medicine. 2003 Apr 01; 4(2)1 21-32). The IRLS is a 10-item scale with scores ranging from 0 (no symptoms) to 40. Scores>30 are considered very severe, severe (Score 21-30), moderate (scores 11-20) and […], mild. Use of the scale is common for clinical assessment, research and therapeutic trials with RLS.
Serum creatine kinase activity was only mildly elevated at up to 400 IU/L. The patient was evaluated using the RLS diagnostic index (RLS-DI) (see Walters et al., Sleep Med 2003; 4(2):121-132;). The patient's International Restless Legs Syndrome Rating Scale score (IRLS) was 36, and thus a severe RLS was diagnosed. The patient was started on therapy with acetyl-DL-leucine at a dose of 3 g per day for the first week, followed by a dose of 5 g per day for the second week onwards. Within 14 days on acetyl-DL-leucine, the IRLS dropped to 26, and after another 5 weeks, the IRLS declined to 9. […] Re-introduction of the treatment re-declined the score to 8 after 2 weeks. Continuation of treatment over more than 22 weeks stabilized the IRLS score at 8.
(§1) The patient in this case study was a person showing proximal weakness of the lower limb. […] Upon consultation, they reported no sensory symptoms but complained of a restless leg syndrome at night and during resting periods of the day, occurring over the course of the last eight years. […] Serum creatine kinase activity was mildly elevated at 300 IU/L. Iron measurements and all additional lab investigations were normal. The patient was evaluated using the RLS-DI and the patient's IRLS was 32, and thus a moderate to severe RLS was diagnosed. The patient was started on therapy with acetyl-DL-leucine at a dose of 3 g per day for the first week, followed by a dose of 5 g per day for the second week onwards. Within 14 days on acetyl-DL-leucine, the IRLS dropped to 22, and after another 5 weeks, the IRLS declined to 7. Continuation of treatment over more than 28 weeks stabilized the IRLS score at 8.
(§2) The patient in this case study was a person showing mild proximal weakness of the upper and lower limbs slowly progressive. The patient had been diagnosed (genetically confirmed) with McArdle myopathy about 16 years ago. Upon consultation, they reported no sensory symptoms but complained about a severe fatigue and reduced stamina. The patient further reported a restless leg syndrome at night and during resting periods of the day, occurring over the course of the last 12 years. […] Serum creatine kinase activity was mildly elevated at 200 IU/L; however, the patient had 5 episodes of rhabdomyolysis during the past 20 years. Repeated iron measurements and all additional lab investigations were normal. The patient was evaluated using the RLS-DI and the patient's IRLS was 34, and thus a severe RLS was diagnosed. The patient was started on therapy with acetyl-DL-leucine at a dose of 3 g per day for the first week, followed by a dose of 5 g per day for the second week onwards. Within 21 days on acetyl-DL-leucine, the IRLS dropped to 20, and after another 10 weeks, the IRLS declined to 10. Continuation of treatment over more than 30 weeks stabilized the IRLS score at 10. In addition, the patient's fatigue declined (Fatigue Severit Scale: 9 (minimum) to 63 (maximum)) from 53 to 28.
The patient in this case study was a person showing symptoms of RLS and with RLS of unknown etiology. […]

[2] = tested on: patient with RLS and McArdle myopathy; test: Fatigue Severity Scale in patient case study; type: in vivo, human; conditions: Patient 3; scale 9 (minimum) to 63 (maximum); declined from 53
Source text: as §2

[3] = tested on: patients with cerebellar ataxia / Niemann-Pick Type C; conditions: cited from earlier work
[4] = tested on: patients with restless leg syndrome (RLS); test: Symptom relief of RLS by pre-treatment (patient history); type: in vivo, human
Method: as §1, §2
The patient in this case study was a person showing symptoms of RLS and with RLS of unknown etiology. Upon consultation, they reported no sensory symptoms but complained of a restless leg syndrome at night and during resting periods of the day, occurring over the course of the at least 15 years. […] Iron measurements and all additional lab investigations were normal. The patient was evaluated using the RLS-DI and the patient's IRLS was 32, and thus a moderate to severe RLS was diagnosed. The patient was started on therapy with acetyl-DL-leucine at a dose of 3 g per day for the first week, followed by a dose of 5 g per day for the second week onwards. Within 14 days on acetyl-DL-leucine, the IRLS dropped to 8, and after another 2 weeks, the IRLS declined to 6. Continuation of treatment over more than 4 weeks stabilized the IRLS score at 6.

[5] = tested on: rat model of an acute unilateral labyrinthectomy; conditions: Zwergal 2016, Gunther 2015; cited from earlier work
[6] = Patient 2, before acetyl-DL-leucine
[7] = Patient 3, before acetyl-DL-leucine
[8] = Patient 4, before acetyl-DL-leucine

CC(=O)NC(CC(C)C)C(=O)O (racemic) [acetyl-DL-leucine]
IRLS ([1]; Patient 1, baseline 36, after another 5 weeks on 5 g per day): 9
IRLS ([1]; Patient 1, baseline IRLS 36, 3 g per day first week then 5 g per day, within 14 days): 26
IRLS ([1]; Patient 1, after interruption of 4 weeks of the treatment after week 12): 28
IRLS ([1]; Patient 1, continuation of treatment over more than 22 weeks): 8
IRLS ([1]; Patient 1, re-introduction of the treatment, after 2 weeks): 8
IRLS ([1]; Patient 2, baseline 32, after another 5 weeks): 7
IRLS ([1]; Patient 2, baseline IRLS 32, 3 g per day first week then 5 g per day, within 14 days): 22
IRLS ([1]; Patient 2, continuation of treatment over more than 28 weeks): 8
IRLS ([1]; Patient 3, baseline 34, after another 10 weeks): 10
IRLS ([1]; Patient 3, baseline IRLS 34, 3 g per day first week then 5 g per day, within 21 days): 20
IRLS ([1]; Patient 3, continuation of treatment over more than 30 weeks): 10
IRLS ([1]; Patient 4, baseline 32, after another 2 weeks): 6
IRLS ([1]; Patient 4, baseline IRLS 32, 3 g per day first week then 5 g per day, within 14 days): 8
IRLS ([1]; Patient 4, continuation of treatment over more than 4 weeks): 6
Fatigue Severit Scale [2]: 28
brain metabolism (PET) ([3]; PET study in patients with ataxia, Becker-Bense et al. (2015)): increased metabolism in the midbrain and lower brainstem in responders
cerebellar ataxia benefit ([3]; another case series, Pelz et al. (2015)): did not find benefit
cerebellar ataxia symptoms ([3]; case series with cerebellar patients, Strupp et al. (2013)): symptomatic improvement of cerebellar ataxia
ataxia symptoms ([3]; one-month study, 12 patients with Niemann-Pick Type C, Bremova et al. (2015)): symptomatic improvement of ataxia was shown
temporal gait variability ([3]; quantitative gait analysis, patients with cerebellar ataxia, Schniepp et al. (2015)): improved temporal gait variability

N[C@@H](Cc1ccc(O)c(O)c1)C(=O)O [L-dopa]
RLS symptom relief by pre-treatment [4, 6]: without sustained symptom relief
RLS symptom relief by pre-treatment [4, 7]: without sustained symptom relief
RLS symptom relief by pre-treatment [4, 8]: without sustained relief

CC(=O)N[C@@H](CC(C)C)C(=O)O [N-acetyl-L-leucine]
postural compensation [5]: significant effect

CC(C)C[C@H](CN)CC(=O)O [pregabaline]
RLS symptom relief by pre-treatment [4, 6]: without sustained symptom relief
RLS symptom relief by pre-treatment [4, 7]: without sustained symptom relief
RLS symptom relief by pre-treatment [4, 8]: without sustained relief
